Data: US20250171462A1 (NICO Therapeutics, Inc., priority 2022, published 2025)
Where two headings read alike, the source gives them in different places.

Target: T1, full-length SARM1 (FL-SARM1) (Homo sapiens, UniProt Q6SZW1)
T1 sequence (Q6SZW1 28-724): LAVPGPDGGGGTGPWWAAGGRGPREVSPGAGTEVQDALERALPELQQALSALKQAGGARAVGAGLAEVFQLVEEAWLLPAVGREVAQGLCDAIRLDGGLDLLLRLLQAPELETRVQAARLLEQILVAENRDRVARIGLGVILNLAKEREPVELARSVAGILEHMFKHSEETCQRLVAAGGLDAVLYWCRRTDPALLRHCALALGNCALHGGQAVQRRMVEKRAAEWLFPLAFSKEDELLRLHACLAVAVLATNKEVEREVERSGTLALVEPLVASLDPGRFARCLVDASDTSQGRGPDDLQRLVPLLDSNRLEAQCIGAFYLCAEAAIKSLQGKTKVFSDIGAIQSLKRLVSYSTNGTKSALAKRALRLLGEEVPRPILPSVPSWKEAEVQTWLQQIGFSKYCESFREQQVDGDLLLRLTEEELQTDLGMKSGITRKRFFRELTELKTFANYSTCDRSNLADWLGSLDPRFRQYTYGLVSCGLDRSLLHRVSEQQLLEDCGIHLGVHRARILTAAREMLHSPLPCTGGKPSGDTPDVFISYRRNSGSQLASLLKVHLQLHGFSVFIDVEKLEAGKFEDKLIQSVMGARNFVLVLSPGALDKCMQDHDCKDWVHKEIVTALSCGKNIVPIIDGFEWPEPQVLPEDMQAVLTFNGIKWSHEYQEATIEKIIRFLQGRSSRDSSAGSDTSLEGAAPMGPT
Assay: FL-SARM1 cellular lysate assay (NAD/NADH-Glo detection of remaining NAD+, NMN-activated)

[1] = Activity (IC50 class), 11 point curve
[2] = Activity (μM) (IC50), 11 point curve
[3] = read-out: Activity (IC50 class), 11 point curve

## Cc1c(C#N)cc(NC(=O)N2C3CCCC2C3)cc1-c1ccccn1 [Example 83, N-(3-cyano-4-methyl-5-pyridin-2-ylphenyl)-6-azabicyclo[3.1.1]heptane-6-carboxamide]
[1]
  IC50: > 10 µM
[2]
  IC50: 35 µM

## Cc1ccc(NC(=O)[C@@H]2CO[C@H](C(F)(F)F)CN2c2ccccn2)cc1-c1ncc(F)cn1 (racemic) [Example 272, cis-N-(3-(5-fluoropyrimidin-2-yl)-4-methylphenyl)-4-(pyridin-2-yl)-6-(trifluoromethyl) morpholine-3-carboxamide]
[1]
  IC50: 1 to 10 µM
[2]
  IC50: 1.1 µM

## Cc1ccc(-c2cc(NC(=O)N3[C@@H]4C[C@@H](C)C[C@H]3C4)ccc2C)nn1 [Example 242, cis-3-methyl-N-[4-methyl-3-(6-methylpyridazin-3-yl)phenyl]-6-azabicyclo[3.1.1]heptane-6-carboxamide]
[2]
  IC50: 0.07 µM
[3]
  IC50: 0.0001 to 1 µM

## Cc1ccc(NC(=O)[C@@H]2C[C@@H]3[C@H](C2)C3(F)F)cc1-c1cccnn1 [Example 176, trans-6,6-difluoro-N-(4-methyl-3-(pyridazin-3-yl)phenyl)bicyclo[3.1.0]hexane-3-carboxamide]
[1]
  IC50: > 10 µM
[2]
  IC50: 16 µM

## C[C@H]1CC1c1ccc(NC(=O)[C@@H]2CC2(F)F)cc1-c1ccccn1 (stereo partly drawn) [Example 127, (1S)-2,2-difluoro-N-[4-[trans-2-methylcyclopropyl]-3-pyridin-2-ylphenyl]cyclopropane-1-carboxamide]
[1]
  IC50: 1 to 10 µM
[2]
  IC50: 5.6 µM

## CCN1CC2CC(C1)N2C(=O)Nc1ccc(C)c(-c2ccccn2)c1 [Example 7, 3-Ethyl-N-(4-methyl-3-(pyridin-2-yl)phenyl)-3,6-diazabicyclo[3.1.1]heptane-6-carboxamide]
[1]
  IC50: 1 to 10 µM
[2]
  IC50: 4 µM

## Cc1ccc(NC(=O)N2[C@@H]3CC(C)C[C@H]2C3)cc1-c1ncccc1C (mixture of isomers) [Example 31, 3-methyl-N-(4-methyl-3-(3-methylpyridin-2-yl)phenyl)-6-azabicyclo[3.1.1]heptane-6-carboxamide]
[2]
  IC50: 0.8 µM
[3]
  IC50: 0.0001 to 1 µM

## Cc1ccc(NC(=O)N2C3CCCC2C3)cc1-c1cccc(C#N)n1 [Example 44, N-(3-(6-cyanopyridin-2-yl)-4-methylphenyl)-6-azabicyclo[3.1.1]heptane-6-carboxamide]
[2]
  IC50: 0.1 µM
[3]
  IC50: 0.0001 to 1 µM

## Cc1ccc(NC(=O)[C@H]2CC[C@@H](C3CC3)N2c2ccccn2)cc1-c1ncc(F)cn1 (racemic) [Example 273, cis-5-cyclopropyl-N-(3-(5-fluoropyrimidin-2-yl)-4-methylphenyl)-1-(pyridin-2-yl)pyrrolidine-2-carboxamide]
[1]
  IC50: 1 to 10 µM
[2]
  IC50: 1.9 µM

## Cc1cc(F)c(NC(=O)N2[C@@H]3C[C@@H](C)C[C@H]2C3)cc1-c1ncccn1 [Example 253, cis-N-(2-fluoro-4-methyl-5-pyrimidin-2-ylphenyl)-3-methyl-6-azabicyclo[3.1.1]heptane-6-carboxamide]
[2]
  IC50: 0.08 µM
[3]
  IC50: 0.0001 to 1 µM

## Cc1ccc(NC(=O)C2CCc3cccnc32)cc1-c1ncc(F)cn1 (racemic) [Example 290, N-[3-(5-fluoropyrimidin-2-yl)-4-methylphenyl]-6,7-dihydro-5H-cyclopenta[b]pyridine-7-carboxamide]
[1]
  IC50: > 10 µM
[2]
  IC50: 17 µM

## C[C@@H]1CC2C[C@H](C1)N2C(=O)Nc1ccc(CF)c(-c2ncc(F)cn2)c1 [Example 179, cis-N-(4-(fluoromethyl)-3-(5-fluoropyrimidin-2-yl)phenyl)-3-methyl-6-azabicyclo[3.1.1]heptane-6-carboxamide]
[2]
  IC50: 0.03 µM
[3]
  IC50: 0.0001 to 1 µM

## C[C@@H]1CC2C[C@H](C1)N2C(=O)Nc1ccc(Cl)c(-c2cccnn2)c1 [Example 64, cis-N-(4-chloro-3-pyridazin-3-ylphenyl)-3-methyl-6-azabicyclo[3.1.1]heptane-6-carboxamide]
[2]
  IC50: 0.1 µM
[3]
  IC50: 0.0001 to 1 µM

## Cc1ccc(NC(=O)N2CCCC2c2ccn(C)n2)cc1-c1ccccn1 (racemic) [Example 88, 2-(1-methylpyrazol-3-yl)-N-(4-methyl-3-pyridin-2-ylphenyl)pyrrolidine-1-carboxamide]
[1]
  IC50: > 10 µM
[2]
  IC50: 11 µM

## Cc1c(Cl)cc(NC(=O)N2C3CCCC2C3)cc1-c1ccccn1 [Example 77, N-(3-chloro-4-methyl-5-(pyridin-2-yl)phenyl)-6-azabicyclo[3.1.1]heptane-6-carboxamide]
[2]
  IC50: 0.8 µM
[3]
  IC50: 0.0001 to 1 µM

## Cc1ccc(NC(=O)C2(C3CCC3)CC2)cc1-c1cccnn1 [Example 295, 1-cyclobutyl-N-(4-methyl-3-pyridazin-3-ylphenyl)cyclopropane-1-carboxamide]
[1]
  IC50: > 10 µM
[2]
  IC50: 13 µM

## Cc1ccc(NC(=O)C2CN(CC(F)(F)F)C2)cc1-c1ccccn1 [Example 132, N-(4-methyl-3-pyridin-2-ylphenyl)-1-(2,2,2-trifluoroethyl)azetidine-3-carboxamide]
[1]
  IC50: > 10 µM
[2]
  IC50: 43 µM

## Cc1ccc(NC(=O)N2C3C[C@@H](C)C[C@H]2C3)cc1-c1nccc(OC(F)F)n1 [Example 233, cis-N-[3-[4-(difluoromethoxy)pyrimidin-2-yl]-4-methylphenyl]-3-methyl-6-azabicyclo[3.1.1]heptane-6-carboxamide]
[2]
  IC50: 0.1 µM
[3]
  IC50: 0.0001 to 1 µM

## Cc1cc(F)c(NC(=O)N2C3CC2CN(CC(F)(F)F)C3)cc1-c1ccccn1 [Example 3, N-(2-Fluoro-4-methyl-5-(pyridin-2-yl)phenyl)-3-(2,2,2-trifluoroethyl)-3,6-diazabicyclo[3.1.1]heptane-6-carboxamide]
[1]
  IC50: 1 to 10 µM
[2]
  IC50: 1.2 µM

## CO[C@H]1C[C@@H]2C[C@H](C1)N2C(=O)Nc1ccc(C)c(-c2ccccn2)c1 [Example 45, trans-3-Methoxy-N-(4-methyl-3-(pyridin-2-yl)phenyl)-6-azabicyclo[3.1.1]heptane-6-carboxamide]
[2]
  IC50: 0.5 µM
[3]
  IC50: 0.0001 to 1 µM

## Cc1ccc(NC(=O)C2C3CCC2CC3)cc1-c1ccccn1 (centres unmarked) [Example 73, N-(4-methyl-3-(pyridin-2-yl)phenyl)bicyclo[2.2.1]heptane-7-carboxamide]
[2]
  IC50: 0.09 µM
[3]
  IC50: 0.0001 to 1 µM

## Cc1ccc(NC(=O)[C@H]2[C@@H]3CC(F)(F)C[C@@H]32)cc1-c1cccnn1 [Example 289, trans-3,3-difluoro-N-(4-methyl-3-pyridazin-3-ylphenyl)bicyclo[3.1.0] hexane-6-carboxamide]
[1]
  IC50: > 10 µM
[2]
  IC50: 26 µM

## Cc1ccc(NC(=O)[C@H]2C[C@@H]2C(F)(F)F)cc1-c1ccccn1 (racemic) [Example 128, trans-N-(4-methyl-3-pyridin-2-ylphenyl)-2-(trifluoromethyl)cyclopropane-1-carboxamide]
[1]
  IC50: 1 to 10 µM
[2]
  IC50: 4.3 µM

## Cc1ccc(NC(=O)[C@H]2CC[C@@H](C)CN2c2ncccn2)cc1-c1ncccn1 (single isomer, unassigned) [Example 205, cis-5-methyl-N-(4-methyl-3-(pyrimidin-2-yl)phenyl)-1-(pyrimidin-2-yl)piperidine-2-carboxamide]
[2]
  IC50: 0.3 µM
[3]
  IC50: 0.0001 to 1 µM

## Cc1ccc(NC(=O)[C@@H]2CC2(F)F)cc1-c1cc(C#N)ccn1 [Example 157, (1S)-N-[3-(4-cyanopyridin-2-yl)-4-methylphenyl]-2,2-difluorocyclopropane-1-carboxamide]
[1]
  IC50: > 10 µM
[2]
  IC50: 38 µM
